# Source: patent EP4644383A1 (Jiangsu Yahong Meditech Co., Ltd., priority 2022, dated 2024)
# Like-named read-outs stand apart in the source and are kept apart here.
# Tests used:
# FGFR1 = biological target: T1, FGFR1 (Homo sapiens, UniProt P11362); experiment: FGFR1 kinase activity inhibition assay (LanthaScreen TR-FRET); type: biochemical
# T1 construct: cytoplasmic domain [398-822 (terminal) amino acids]; purchased Carna 08-133
# Method: PV3552) and 10 mM EDTA were added to quench the kinase reaction, and incubated at 22°C for 60 minutes. • ⑤ The reaction was measured using a PerkinElmer EnVision multimode plate reader through TR-FRET dual wavelength detection. • 1. The RFU values were copied from the Envision program. • 2. The ratio of RFU 520nm/RFU 495nm was calculated. • 3. The value of the ratio was converted to a percentage inhibition value. % Inhibition = (max-data)/(max-min) × 100 [formula] "Min" represents the ratio of the control without enzyme, "max" represents the ratio of the DMSO control, and "data" represents the ratio of the compounds in wells with different concentrations. […] "Top" refers to the maximum response, "Bottom" refers to the minimum response, and "HillSlope" refers to the slope of the curve.
# FGFR3 = biological target: T2, FGFR3 (Homo sapiens, UniProt P22607); experiment: FGFR3 kinase activity inhibition assay (LanthaScreen TR-FRET); type: biochemical; details: for Selectivity (X) FGFR1/FGFR3: ratio of IC50 FGFR1/FGFR3, selectivity towards FGFR3
# T2 construct: FGFR3's cytoplasmic domain [436-806 (terminal) amino acids]; purchased Carna 08-135
# Method in brief: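 Read-out is TR-FRET, with the 520 nm/495 nm emission ratio normalised to DMSO (max) and enzyme-free (min) controls. Enzyme was the FGFR3 cytoplasmic domain, residues 436-806. EDTA (10 mM) stopped the reaction, followed by 60 min at 22 °C before reading.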
# [1] = FGFR1 kinase, TR-FRET, read-out: IC50 (nM) FGFR1
# [2] = FGFR3 kinase, TR-FRET, read-out: IC50 (nM) FGFR3
# T2 sequence (P22607 436-806): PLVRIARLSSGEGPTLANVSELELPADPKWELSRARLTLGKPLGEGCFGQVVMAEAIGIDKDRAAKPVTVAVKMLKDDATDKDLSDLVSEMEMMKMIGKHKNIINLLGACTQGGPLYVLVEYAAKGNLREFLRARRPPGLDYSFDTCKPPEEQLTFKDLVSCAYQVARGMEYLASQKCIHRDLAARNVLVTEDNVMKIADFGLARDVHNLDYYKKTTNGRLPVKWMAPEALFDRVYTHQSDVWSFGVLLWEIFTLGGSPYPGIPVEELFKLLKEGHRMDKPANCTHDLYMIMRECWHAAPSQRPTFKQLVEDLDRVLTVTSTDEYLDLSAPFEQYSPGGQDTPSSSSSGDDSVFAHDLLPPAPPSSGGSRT
# T1 sequence (P11362 398-822): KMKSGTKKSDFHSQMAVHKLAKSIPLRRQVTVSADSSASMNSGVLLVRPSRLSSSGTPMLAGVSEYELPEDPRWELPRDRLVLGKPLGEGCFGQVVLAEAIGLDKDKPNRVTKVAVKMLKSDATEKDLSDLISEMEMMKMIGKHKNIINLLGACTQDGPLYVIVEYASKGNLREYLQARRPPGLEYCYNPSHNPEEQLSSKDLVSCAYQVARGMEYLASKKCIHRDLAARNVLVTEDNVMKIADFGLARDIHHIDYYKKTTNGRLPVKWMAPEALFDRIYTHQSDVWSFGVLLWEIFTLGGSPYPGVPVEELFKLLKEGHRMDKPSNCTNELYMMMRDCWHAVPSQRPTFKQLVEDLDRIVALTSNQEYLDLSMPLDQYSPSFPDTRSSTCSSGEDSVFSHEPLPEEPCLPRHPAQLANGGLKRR
Molecule,IC50 (FGFR1; [1]) [nM],IC50 (FGFR3; [2]) [nM],Selectivity (X) FGFR1/FGFR3 (FGFR3),IC50 (FGFR1) [nM],IC50 (FGFR3) [nM]
"Cc1cc(O[C@H](C)c2c(Cl)cncc2Cl)cc2c(-c3cnn(CC4CC4)c3)n[nH]c12 [Example 26, (R)-3-(1-(cyclopropylmethyl)-1H-pyrazol-4-yl)-5-(1-(3,5-dichloropyridin-4-yl)ethoxy)-7-methyl-1H-indazole]",,,B (B represents 20 ≤ multiple X<50),> 100,10 to 100
"CC(Oc1ccc2[nH]nc(-c3cnn(C)c3)c2c1)c1cc(Br)cc2nccnc12 (stereo not drawn) [Example 143, 7-bromo-5-(1-((3-(1-methyl-1H-pyrazol-4-yl)-1H-indazol-5-yl)oxy)ethyl)quinoxaline]",10 to 100,1 to 10,B (B represents 20 ≤ multiple X<50),,
"CC(Oc1ccc2[nH]nc(-c3cnn(C4CC(N(C)C(=O)C(C)(C)O)C4)c3)c2c1)c1cccc2nccnc12 (stereo not drawn) [Example 197, 2-hydroxy-N,2-dimethyl-N-(3-(4-(5-(1-(quinoxalin-5-yl)ethoxy)-1H-indazol-3-yl)-1H-pyrazol-1-yl)cyclobutyl)prop anamide]",10 to 100,< 1,B (B represents 20 ≤ multiple X<50),,
"COc1cc(C(C)Oc2ccc3[nH]nc(-c4cnn(C)c4)c3c2)c2cccnc2c1 (stereo not drawn) [Example 148, 7-methoxy-5-(1-((3-(1-methyl-1H-pyrazol-4-yl)-1H-indazol-5-yl)oxy)ethyl)qu inoline]",> 100,1 to 10,C (C represents 50 ≤ multiple X<100),,
"CCCn1cc(-c2n[nH]c3ccc(O[C@H](C)c4c(Cl)cncc4Cl)nc23)cn1 [Example 46, (R)-5-(1-(3,5-dichloropyridin-4-yl)ethoxy)-3-(1-propyl-1H-pyrazol-4-yl)-1H-pyrazolo[4,3-b]pyridine]",10 to 100,< 1,B (B represents 20 ≤ multiple X<50),,
"CC(Oc1ccc2[nH]nc(-c3cnn(C4CN(C=O)C4)c3)c2c1)c1cc(Cl)cc2nccnc12 (stereo not drawn) [Example 240, 3-(4-(5-(1-(7-chloroquinoxalin-5-yl)ethoxy)-1H-indazol-3-yl)-1H-pyrazol-1-yl)azetidine-1-carbaldehyde]",10 to 100,< 1,B (B represents 20 ≤ multiple X<50),,
"CC(Oc1ccc2[nH]nc(-c3cnn(C4CN(C(=O)CN)C4)c3)c2c1)c1cccc2nccnc12 (stereo not drawn) [Example 175, 2-amino-1-(3-(4-(5-(1-(quinoxalin-5-yl)ethoxy)-1H-indazol-3-yl)-1-pyrazol-1-yl)azetidin-1-yl)ethan-1-one]",,,A (A represents 1 ≤ multiple X<20),1 to 10,< 1
"CC(Oc1ccc2[nH]nc(-c3cnn(C)c3)c2c1)c1nccc2ncccc12 (stereo not drawn) [Example 120, 5-(1-((3-(1-methyl-1H-pyrazol-4-yl)-1H-indazol-5-yl)oxy)ethyl)-1,6-naphthyridine]",> 100,1 to 10,B (B represents 20 ≤ multiple X<50),,
"CC(Oc1ccc2[nH]nc(-c3cnn(C4CN(C(=O)C5CC5)C4)c3)c2c1)c1cccc2nccnc12 (stereo not drawn) [Example 219, cyclopropyl(3-(4-(5-(1-(quinoxalin-5-yl)ethoxy)-1H-indazol-3-yl)-1H-pyrazol-1-yl)azetidin-1-yl)methanone]",10 to 100,< 1,A (A represents 1 ≤ multiple X<20),,
"Cc1cnc2cccc(C(C)Oc3ccc4[nH]nc(-c5cnn(C)c5)c4c3)c2c1 (stereo not drawn) [Example 128, 3-methyl-5-(1-((3-(1-methyl-1H-pyrazol-4-yl)-1H-indazol-5-yl)oxy)ethyl)qu inoline]",> 100,1 to 10,B (B represents 20 ≤ multiple X<50),,
"CC(Oc1ccc2[nH]nc(-c3cnn(C4CN(C(=O)C(C)(C)N)C4)c3)c2c1)c1cc(Cl)cc2ncccc12 (stereo not drawn) [Example 211, 2-amino-1-(3-(4-(5-(1-(7-chloroquinolin-5-yl)ethoxy)-1H-indazol-3-yl)-1-pyrazol-1-yl)azetidin-1-yl)-2-methylpropan-1-one]",10 to 100,< 1,B (B represents 20 ≤ multiple X<50),,
"CC(Oc1ccc2[nH]nc(-c3cnn(C4CN(C(=N)N)C4)c3)c2c1)c1cccc2nccnc12 (stereo not drawn) [Example 177, 3-(4-(5-(1-(quinoxalin-5-yl)ethoxy)-1H-indazol-3-yl)-1H-pyrazol-1-yl)azetidine-1-carboximidamide]",10 to 100,1 to 10,B (B represents 20 ≤ multiple X<50),,
"Cc1ncc(-c2n[nH]c3ccc(O[C@H](C)c4c(Cl)cncc4Cl)nc23)cn1 [Example 52, (R)-5-(1-(3,5-dichloropyridin-4-yl)ethoxy)-3-(2-methylpyrimidin-5-yl)-1H-pyrazolo[4,3-b]pyridine]",> 100,10 to 100,A (A represents 1 ≤ multiple X<20),,
CC(C)c1cc2nccnc2c(C(C)Oc2ccc3[nH]nc(-c4cnn(C)c4)c3c2)n1 (stereo not drawn) [Example 237],10 to 100,1 to 10,B (B represents 20 ≤ multiple X<50),,

# The next lines start with results.
IC50 (FGFR1; [1]) [nM],IC50 (FGFR3; [2]) [nM],Selectivity (X) FGFR1/FGFR3 (FGFR3),Molecule,IC50 (FGFR1) [nM],IC50 (FGFR3) [nM]
10 to 100,< 1,B (B represents 20 ≤ multiple X<50),"CC(Oc1ccc2[nH]nc(-c3cnn(C4CN(C(=O)C5(O)CC5)C4)c3)c2c1)c1cc(Cl)cc2nccnc12 (stereo not drawn) [Example 222, (3-(4-(5-(1-(7-chloroquinoxalin-5-yl)ethoxy)-1H-indazol-3-yl)-1H-pyrazol-1-yl)azetidin-1-yl)(1-hydroxycyclopropyl)methanone]",,
10 to 100,1 to 10,A (A represents 1 ≤ multiple X<20),"CCc1ccc2ncccc2c1C(C)Oc1ccc2[nH]nc(-c3cnn(C)c3)c2c1 (stereo not drawn) [Example 111, 6-ethyl-5-(1-((3-(1-methyl-1H-pyrazol-4-yl)-1H-indazol-5-yl)oxy)ethyl)qu inoline]",,
1 to 10,< 1,A (A represents 1 ≤ multiple X<20),"CC(Oc1ccc2[nH]nc(-c3cnn(C4CN(C(=O)C(C)(C)N)C4)c3)c2c1)c1cc(Cl)cc2nccnc12 (stereo not drawn) [Example 210, 2-amino-1-(3-(4-(5-(1-(7-chloroquinoxalin-5-yl)ethoxy)-1H-indazol-3-yl)-1-pyrazol-1-yl)azetidin-1-yl)-2-methylpropan-1-one]",,
10 to 100,< 1,B (B represents 20 ≤ multiple X<50),"CC(Oc1ccc2[nH]nc(-c3cnn(CCCS(N)(=O)=O)c3)c2c1)c1cccc2nccnc12 (stereo not drawn) [Example 179, 3-(4-(5-(1-(quinoxalin-5-yl)ethoxy)-1H-indazol-3-yl)-1H-pyrazol-1-yl)propane-1-sulfonamide]",,
10 to 100,< 1,B (B represents 20 ≤ multiple X<50),"CC(Oc1ccc2[nH]nc(-c3cnn(C4CN(C(=O)CO)C4)c3)c2c1)c1cc(Cl)cc2nccnc12 (stereo not drawn) [Example 207, 1-(3-(4-(5-(1-(7-chloroquinoxalin-5-yl)ethoxy)-1H-indazol-3-yl)-1H-pyrazol-1-yl)azetidin-1-yl)-2-hydroxyethan-1-one]",,
10 to 100,< 1,B (B represents 20 ≤ multiple X<50),"CC(Oc1ccc2[nH]nc(-c3cnn(C)c3)c2c1)c1cc(C#N)cc2nccnc12 (stereo not drawn) [Example 141, 8-(1-((3-(1-methyl-1H-pyrazol-4-yl)-1H-indazol-5-yl)oxy)ethyl)qu inoxaline-6-carbonitrile]",,
1 to 10,< 1,A (A represents 1 ≤ multiple X<20),"7-methyl-5-(1-((3-(1-methyl-1H-pyrazol-4-yl)-1H-pyrazino[4,3-b]pyridin-5-yl)oxy)ethyl)pyridi no[3,4-b]pyrazine [Example 204]",,
1 to 10,< 1,A (A represents 1 ≤ multiple X<20),"CC(Oc1ccc2[nH]nc(-c3cnn(C)c3)c2c1)c1cc(C(F)F)cc2nccnc12 (stereo not drawn) [Example 145, 7-(difluoromethyl)-5-(1-((3-(1-methyl-1H-pyrazol-4-yl)-1H-indazol-5-yl)oxy)ethyl)qu inoxaline]",,
1 to 10,< 1,B (B represents 20 ≤ multiple X<50),"CC(Oc1ccc2[nH]nc(-c3cnn(C4CN(C(=O)C5(O)CCC5)C4)c3)c2c1)c1cccc2nccnc12 (stereo not drawn) [Example 221, (1-hydroxycyclobutyl)(3-(4-(5-(1-(quinoxalin-5-yl)ethoxy)-1H-indazol-3-yl)-1H-pyrazol-1-yl)azetidin-1-yl)methanone]",,
1 to 10,< 1,A (A represents 1 ≤ multiple X<20),"CC(Oc1ccc2[nH]nc(-c3cnn(C)c3)c2c1)c1cc(N)cc2ncccc12 (stereo not drawn) [Example 150, 5-(1-((3-(1-methyl-1H-pyrazol-4-yl)-1H-indazol-5-yl)oxy)ethyl)qu inoline-7-amine]",,
1 to 10,< 1,A (A represents 1 ≤ multiple X<20),"CNCC(=O)N1CC(n2cc(-c3n[nH]c4ccc(OC(C)c5cccc6nccnc56)cc34)cn2)C1 (stereo not drawn) [Example 193, 2-(methylamino)-1-(3-(4-(5-(1-(quinoxalin-5-yl)ethoxy)-1H-indazol-3-yl)-1H-pyrazol-1-yl)azetidin-1-yl)ethan-1-one]",,
